Assay results from patent US8828985B2, “Carbamate and urea inhibitors of 11-beta-hydroxysteroid dehydrogenase 1” (Vitae Pharmaceuticals, Inc., priority 2008, dated 2014).

Assays:
[1] = target: T1, purified recombinant 11β-HSD1 (Homo sapiens, UniProt P28845); test: Biological Test Example 1: inhibition of purified 11β-HSD1, Scintillation Proximity Assay; assay type: biochemical; conditions: purified recombinant 11β-HSD1 (expressed in E. coli), SPA; read-out: Biological Test Example 1 IC50 Range
T1 construct: made in house; host or cells: E. coli
T1 sequence (P28845 whole entry, species assumed): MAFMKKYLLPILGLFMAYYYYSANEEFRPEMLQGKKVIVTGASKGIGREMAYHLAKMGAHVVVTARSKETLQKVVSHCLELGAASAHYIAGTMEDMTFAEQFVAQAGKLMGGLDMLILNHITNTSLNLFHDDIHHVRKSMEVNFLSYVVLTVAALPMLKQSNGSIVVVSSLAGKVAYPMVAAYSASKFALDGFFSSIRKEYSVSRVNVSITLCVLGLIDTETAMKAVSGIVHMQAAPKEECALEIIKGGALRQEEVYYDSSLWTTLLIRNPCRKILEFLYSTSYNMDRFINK
Protocol: The inhibition of purified 11β-HSD1 by compounds of Formula I is measured using a Scintillation Proximity Assay. […] The reaction is then incubated for 90 minutes, and stopped by adding 50 μl of SPA bead mix (18-β-glycyrrhetinic acid, 10 μM final, 5 mg/ml protein A coated YSi SPA beads, and 1 ug/ml α-cortisol antibody (East Coast Biologics)). The plate is shaken for 120 minutes, and the radioactivity corresponding to ^3H cortisol is measured on a Wallac Microbeta.

[2] = target: T2, human 11β-HSD1 (Homo sapiens, UniProt P28845); conditions: at 100 nm
T2 sequence (P28845 whole entry): as the sequence (P28845 whole entry, species assumed) above

[3] = target: T2, human 11β-HSD1; test: biochemical; conditions: Biological Test Example 2 IC50 Range, microsomes from CHO cells overexpressing human 11β-HSD1, SPA

SMILES	IC50 [1]	Biological Test Example 2 Average % inhibition at 100 nm [2]	IC50 [3]
CC(C)(C)OC(=O)N1CCC2CN(C(=O)OC3C4CC5CC(C4)CC3C5)CC21 (racemic) [Example 11, (±)-1-tert-butyl 5-(2-adamantyl) hexahydropyrrolo[3,4-b]pyrrole-1,5-dicarboxylate]	< 100 nM	–	–
NC(=O)C12CC3CC(C1)C(OC(=O)N1CC[C@@H](Nc4ncccn4)C1)C(C3)C2 (single isomer, unassigned) [Example 62 Isomer 1]	–	40.8%	< 100 nM
CNC(=O)C12CC3CC(C1)C(OC(=O)N1CC[C@@H](Nc4ccc(C#N)cn4)C1)C(C3)C2 (single isomer, unassigned) [Example 114 Isomer 2]	–	58.4%	< 100 nM
N#Cc1ccc(N[C@@H]2CCN(C(=O)OC3C4CC5CC3CC(C(=O)NC3CCCCC3)(C5)C4)C2)nc1 (single isomer, unassigned) [Example 117 Isomer 1]	–	17.85%	> 100 nM
N#Cc1ccc(N[C@@H]2CCN(C(=O)OC3C4CC5CC3CC(C(=O)NC3CCCCC3)(C5)C4)C2)nc1 (single isomer, unassigned) [Example 117 Isomer 2]	–	63.1%	< 100 nM
CC(C)(C)OC(=O)NCC1CN(C(=O)OC2C3CC4CC(C3)CC2C4)C1 (centres unmarked) [Example 1, 2-adamantyl 3-((tert-butoxycarbonylamino)methyl)azetidine-1-carboxylate]	< 100 nM	–	–
CC(C)(C)OC(=O)N[C@@H]1CCCN(C(=O)OC2C3CC4CC(C3)CC2C4)C1 (stereo partly drawn) [Example 8, (3R)-(2-adamantyl) 3-(tert-butoxycarbonylamino)piperidine-1-carboxylate]	< 100 nM	–	–
CC(C)(C)OC(=O)N[C@@H]1CCN(C(=O)NC2C3CC4CC(C3)CC2C4)C1 (stereo partly drawn) [Example 46, (R)-tert-butyl 1-(2-adamantylcarbamoyl)pyrrolidin-3-ylcarbamate]	< 100 nM	–	–
CC(C)(C)OC(=O)NC[C@@H]1CCN(C(=O)NC2C3CC4CC(C3)CC2C4)C1 (stereo partly drawn) [Example 54, (S)-tert-butyl (1-(2-adamantylcarbamoyl)pyrrolidin-3-yl)methylcarbamate]	< 100 nM	–	–
CN(C(=O)OC(C)(C)C)C1CCN(C(=O)NC2C3CC4CC(C3)CC2C4)C1 (centres unmarked) [Example 55, tert-butyl 1-(2-adamantylcarbamoyl)pyrrolidin-3-yl(methyl)carbamate]	< 100 nM	–	–

Other lines, results leading:

IC50 [1]	Biological Test Example 2 Average % inhibition at 100 nm [2]	IC50 [3]	SMILES
–	11.8%	> 100 nM	CNC(=O)C12CC3CC(C1)C(OC(=O)N1CC[C@@H](Nc4ccc(C#N)cn4)C1)C(C3)C2 (single isomer, unassigned) [Example 114 Isomer 1]
100 to 1000 nM	–	–	CC(C)(C)OC(=O)N[C@H]1CCN(C(=O)NC2C3CC4CC(C3)CC2C4)C1 (stereo partly drawn) [Example 47, (S)-tert-butyl 1-(2-adamantylcarbamoyl)pyrrolidin-3-ylcarbamate]
100 to 1000 nM	–	–	COC(=O)N[C@@H]1CCN(C(=O)NC2C3CC4CC(C3)CC2C4)C1 (stereo partly drawn) [Example 48, (R)-methyl 1-(2-adamantylcarbamoyl)pyrrolidin-3-ylcarbamate]
< 100 nM	–	–	CC(C)(C)OC(=O)NC1CN(C(=O)NC2C3CC4CC(C3)CC2C4)C1 (centres unmarked) [Example 51, tert-butyl 1-(2-adamantylcarbamoyl)azetidin-3-ylcarbamate]
< 100 nM	–	–	CC(C)(C)OC(=O)NCC1CN(C(=O)NC2C3CC4CC(C3)CC2C4)C1 (centres unmarked) [Example 52, tert-butyl (1-(2-adamantylcarbamoyl)azetidin-3-yl)methylcarbamate]
100 to 1000 nM	–	–	CC(C)(C)OC(=O)NC1CCN(C(=O)NC2C3CC4CC(C3)CC2C4)CC1 (centres unmarked) [Example 53, tert-butyl 1-(2-adamantylcarbamoyl)piperidin-4-ylcarbamate]
< 100 nM	–	–	CC(C)(C)OC(=O)N[C@@H]1CCCN(C(=O)NC2C3CC4CC(C3)CC2C4)C1 (stereo partly drawn) [Example 56, (R)-tert-butyl 1-(2-adamantylcarbamoyl)piperidin-3-ylcarbamate]
< 100 nM	–	–	CC(C)(C)OC(=O)N[C@H]1CCCN(C(=O)NC2C3CC4CC(C3)CC2C4)C1 (stereo partly drawn) [Example 57, (S)-tert-butyl 1-(2-adamantylcarbamoyl)piperidin-3-ylcarbamate]
